Structures can show the parent of a compound that is named as a salt.
Target: T1, Recombinant human PAD4 (residues 1-663) (Homo sapiens, UniProt Q9UM07)
T1 construct: Recombinant human PAD4 (residues 1-663); GST (N, cleaved yes); made in house; host or cells: E. coli
Experiment: PAD4 enzyme assay (NH3 release, BAEE substrate, fluorescence)
Format: biochemical
Details: PAD4 enzyme assay above (Conditions A or B) or similar assays; read-out: mean pIC50 (converted)
Description: Recombinant human PAD4 (residues 1-663) was expressed in E. coli as an N-terminal GST-tagged fusion protein. During purification of the protein, the GST tag was removed by cleavage with PreScission Protease (GE Healthcare). Activity of the final product was determined using a FLINT NH3 release assay.
(§1) 8 μl of PAD4 enzyme diluted to an assay concentration of 75 nm in assay buffer (a).: (100 mM HEPES, 50 mM NaCl, 2 mM DTT and 0.6 mg/mIBSA pH 8), or in assay buffer (b).: (100 mM HEPES, 50 mM NaCl, 2 mM DTT, 7.5% glycerol and 1.5 mM CHAPS pH 8), and added to wells containing 0.1 μl of various concentrations of compound or DMSO vehicle (0.8% final) in a Greiner high volume 384 well black plate. Following 30 mins pre-incubation at room temperature, the reaction was initiated by the addition of 4 μl of substrate buffer containing 3 mM N-a-benzoyl-L-arginine ethyl ester (BAEE), 100 mM HEPES, 50 mM NaCl, 600 uM CaCl2 (2H2O) and 2 mM DTT, pH 8.0. The reaction was stopped after 100 mins with the addition of 38 μl stop/detection buffer containing 50 mM EDTA, 2.6 mM phthalaldehyde and 2.6 mM DTT. Assay incubated at room temperature for 90 mins before measuring fluorescent signal (λex 413/λem 476) on an Envision plate reader (Perkin Elmer Life Sciences, Waltham, Mass., USA)
as §1, with “of 30 nM” for “of 75 nm”, “buffer” for “buffer (a).:”, “mg/mIBSA” for “mg/mIBSA pH 8), or in assay buffer (b).: (100 mM HEPES, 50 mM NaCl, 2 mM DTT, 7.5% glycerol and 1.5 mM CHAPS”, “after 60” for “after 100”, “(λex 405/λem 460)” for “(λex 413/λem 476)”

T1 sequence (Q9UM07 whole entry, the tested form may be a part): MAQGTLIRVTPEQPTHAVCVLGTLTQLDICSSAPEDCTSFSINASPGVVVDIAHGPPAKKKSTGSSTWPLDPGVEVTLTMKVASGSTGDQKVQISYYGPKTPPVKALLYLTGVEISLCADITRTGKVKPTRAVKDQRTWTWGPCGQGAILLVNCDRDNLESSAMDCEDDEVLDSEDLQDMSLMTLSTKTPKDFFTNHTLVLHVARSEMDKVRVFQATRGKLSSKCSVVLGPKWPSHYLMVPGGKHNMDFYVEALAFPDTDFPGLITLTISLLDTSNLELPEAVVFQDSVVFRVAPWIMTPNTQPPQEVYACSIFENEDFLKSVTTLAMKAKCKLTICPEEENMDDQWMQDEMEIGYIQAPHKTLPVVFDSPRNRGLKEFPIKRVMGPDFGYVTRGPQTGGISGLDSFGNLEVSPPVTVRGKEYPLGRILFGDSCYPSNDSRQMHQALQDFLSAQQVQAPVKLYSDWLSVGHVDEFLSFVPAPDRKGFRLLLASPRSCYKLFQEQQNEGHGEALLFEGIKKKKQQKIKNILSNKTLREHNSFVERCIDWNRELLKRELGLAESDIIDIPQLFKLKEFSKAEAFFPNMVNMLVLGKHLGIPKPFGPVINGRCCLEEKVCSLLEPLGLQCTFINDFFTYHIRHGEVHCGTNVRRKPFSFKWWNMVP

IC50	Compound
0.0316 to 10 µM	COc1cc(C(=O)N2CCC[C@@H](N)C2)cc2nc(-c3cc4cccnc4n3CC(F)(F)F)n(C)c12 [Example 11A, (R)-(3-Aminopiperidin-1-yl)(7-methoxy-1-methyl-2-(1-(2,2,2-trifluoroethyl)-1H-pyrrolo[2,3-b]pyridin-2-yl)-1H-benzo[d]imidazol-5-yl)methanone]
0.0316 to 10 µM	CCn1c(-c2nc3cc(C(=O)N4CCC[C@@H](N)C4)cc(OC)c3n2C)cc2cccnc21 [Example 9A, (R)-(3-Aminopiperidin-1-yl)(2-(1-ethyl-1H-pyrrolo[2,3-b]pyridin-2-yl)-7-methoxy-1-methyl-1H-benzo[d]imidazol-5-yl)methanone]
0.0316 to 10 µM	CCC(C)Cn1c(-c2nc3cc(C(=O)N4CCC[C@@H](N)C4)cc(OC)c3n2C)cc2cccnc21 (stereo partly drawn) [Example 17, ((R)-3-Aminopiperidin-1-yl)(7-methoxy-1-methyl-2-(1-(2-methylbutyl)-1H-pyrrolo[2,3-b]pyridin-2-yl)-1H-benzo[d]imidazol-5-yl)methanone]
0.0316 to 10 µM	COc1cc(C(=O)N2CCC[C@@H](N)C2)cc2nc(-c3cc4cccnc4n3CC(C)(C)OC)n(C)c12 [Example 21, (R)-(3-Aminopiperidin-1-yl)(7-methoxy-2-(1-(2-methoxy-2-methylpropyl)-1H-pyrrolo[2,3-b]pyridin-2-yl)-1-methyl-1H-benzo[d]imidazol-5-yl)methanone]

Second part, the compound before the results:

Compound	IC50
CCn1c(-c2nc3cc(C(=O)N4CCC[C@@H](N)C4)ccc3n2C)cc2ccncc21 [Example 3, (R)-(3-Aminopiperidin-1-yl)(2-(1-ethyl-1H-pyrrolo[2,3-c]pyridin-2-yl)-1-methyl-1H-benzo[d]imidazol-5-yl)methanone]	0.0316 to 10 µM
CCn1c(-c2nc3cc(C(=O)N4CCC[C@@H](N)C4)ccc3n2C)cc2cc(OC)ncc21 [Example 7, (R)-(3-Aminopiperidin-1-yl)(2-(1-ethyl-5-methoxy-1H-pyrrolo[2,3-c]pyridin-2-yl)-1-methyl-1H-benzo[d]imidazol-5-yl)methanone]	0.0316 to 10 µM
COc1cc(C(=O)N2C[C@@H](N)CC[C@H]2C)cc2nc(-c3cc4cccnc4n3CC3CC3)n(C)c12 (single isomer, unassigned) [Example 23, ((cis)-5-Amino-2-methylpiperidin-1-yl)(2-(1-(cyclopropylmethyl)-1H-pyrrolo[2,3-b]pyridin-2-yl)-7-methoxy-1-methyl-1H-benzo[d]imidazol-5-yl)methanone, hydrochloride]	0.0316 to 10 µM
CCn1c(-c2nc3cc(C(=O)N4CCC[C@@H](N)C4)cc(OC)c3n2CC(C)C)cc2cccnc21 [Example 20, (R)-(3-Aminopiperidin-1-yl)(2-(1-ethyl-1H-pyrrolo[2,3-b]pyridin-2-yl)-1-isobutyl-7-methoxy-1H-benzo[d]imidazol-5-yl)methanone, hydrochloride]	0.0316 to 10 µM
COc1cc(C(=O)N2C[C@H](N)CC[C@@H]2C)cc2nc(-c3cc4cccnc4n3CC3CC3)n(C)c12 (single isomer, unassigned) [Example 24, ((cis)-5-Amino-2-methylpiperidin-1-yl)(2-(1-(cyclopropylmethyl)-1H-pyrrolo[2,3-b]pyridin-2-yl)-7-methoxy-1-methyl-1H-benzo[d]imidazol-5-yl)methanone, hydrochloride]	0.0316 to 10 µM
CCn1c(-c2nc3cc(C(=O)N4CCC[C@@H](N)C4)cc(OC)c3n2CCOC)cc2cccnc21 [Example 18, (R)-(3-Aminopiperidin-1-yl)(2-(1-ethyl-1H-pyrrolo[2,34]pyridin-2-yl)-7-methoxy-1-(2-methoxyethyl)-1H-benzo[d]imidazol-5-yl)methanone, hydrochloride]	0.0316 to 10 µM
CCn1c(-c2nc3cc(C(=O)N4CCC[C@@H](N)C4)ccc3n2C)cc2cc(O)cnc21 [Example 8, 2-(5-{[(3R)-3-Amino-1-piperidinyl]carbonyl}-1-methyl-1H-benzimidazol-2-yl)-1-ethyl-1H-pyrrolo[2,3-b]pyridin-5-ol]	0.0316 to 10 µM

Reference: patent publication US9127003B2, “2-(azaindol-2-yl)benzimidazoles as PAD4 inhibitors” (Glaxo Group Limited, priority 2012, dated 2015)
